{"source": "patent US20160184274A1", "about": "“Methods for inhibiting mesenchymal phenotype after epithelial-to-mesenchymal transition” (Fibrostatin, S.L., priority 2014, published 2016)", "tested_on": "A549 cells expressing GPBP-EYFP", "assay": "GPBP-induced phenotype transition, Western blot of markers", "format": "cell-based, Human", "conditions": "T12 10 μM, 24 h; FIG. 4", "method": "FIG. 4. T12 inhibits GPBP-induced phenotype transition in A549 cultures. A549 cells expressing either GPBP-EYFP fusion protein or EYFP were cultured during 24 h in the presence (+) or absence (−) of T12 (10 μM.) Then cells were lysed and similar amounts of lysates were analyzed by Western blot with antibodies against the indicated proteins. Loading equivalence was confirmed by tubulin expression analysis in each of the individual experiments (not shown). To generate cells expressing GPBP fused to Enhanced Yellow Fluorescent Protein (GPBP-EYFP) or EYFP, A549 cells were transfected either with pEYFP-N1-GPBP construct or with pEYFP-N1 vector (Clontech), expressing GPBP-EYFP and EYFP, respectively. Transfected cells were selected with 400 mg/L of geniticin and clones were isolated with a High SPEED CELL SORTER MOFLO® (Beckman-Coulter) and further cultured. Recombinant protein expression was assessed by immunofluorescence microscopy and by Western blot with anti-GPBP N27 mouse monoclonal antibodies. For Western blot analysis, cells were lysed in TBS supplemented with 1% Triton X-100, 0.1% SDS, 1 mM PMSF, 10 μg/mL leupeptine and 20 mM NaF during 30 min at 4° C. Lysates were centrifuged (16,000×g, 5 min, 4° C.) and supernatants were collected and protein concentration determined (Bio-Rad Protein Assay). Samples were subjected to reducing SDS-PAGE and electro-transference onto PVDF membrane. […]", "data": [{"smiles": "COc1ccc(-c2ccc(-c3cccc(C)c3)c(C)c2)c(CCC(=O)O)c1", "note": "[T12, 3-[4″-methoxy-3,2′-dimethyl-(1,1′;4′,1″)terphenyl-2″-yl] propionic acid]", "values": [{"measurement": "effect on GPBP-EYFP-induced changes of vimentin, phospho p70-S6 kinase and E-cadherin", "result": "counteracted all these regulatory effects"}]}]}
